Laboratory results: US12697330B2, “Therapeutic methods using vadadustat” (Akebia Therapeutics, Inc., priority 2021, dated 2026)

System: erythropoietin (EPO)
Experiment: Phase 2 study, Main Study: pharmacodynamics, Baseline-Unadjusted serum EPO concentration
Format: in vivo, human
Method: PK/PD Endpoints. An exposure-response analysis of vadadustat and PD measures were conducted as deemed appropriate. The PK parameters included (but were not limited to) the following: area under concentration-time curve from dosing to last measurable concentration (AUClast), area under concentration-time curve from dosing to infinity (AUCinf), Cmax, apparent total body clearance (CL/F), apparent volume of distribution (Vd/F), and terminal half-life (t1/2). The PD parameters included (but were not limited to) the following: EPO, reticulocytes, iron, ferritin, TIBC, and hepcidin.
PK population: included all randomized subjects who received study drug (vadadustat or epoetin alfa) and had enough drug concentrations to estimate AUC and Cmax. Analysis of this population was based on the dose amount taken at the date of PK sampling for the vadadustat group.
PD parameters for serum EPO concentration are presented by epoetin alfa stratification for vadadustat treatment groups in Table 7, Table 8a and Table 8b (baseline-unadjusted) and Table 9, Table 10a and Table 10b (baseline-adjusted).

[1] = Vada 450 mg, Week 1, Low Epoetin Alfa Stratum ≤90 U/kg/week
[2] = Vada 450 mg, Week 11, High Epoetin Alfa Stratum >90 to <300 U/kg/week
[3] = Vada 450 mg, Week 11, Low Epoetin Alfa Stratum ≤90 U/kg/week
[4] = Vada 450 mg, Week 13, Low Epoetin Alfa Stratum ≤90 U/kg/week
[5] = Vada 600 mg, Week 1 + 1, High Epoetin Alfa Stratum >90 to <300 U/kg/week
[6] = Vada 600 mg, Week 1, High Epoetin Alfa Stratum >90 to <300 U/kg/week
[7] = Vada 600 mg, Week 11, High Epoetin Alfa Stratum >90 to <300 U/kg/week
[8] = Vada 600 mg, Week 11, Low Epoetin Alfa Stratum ≤90 U/kg/week
[9] = Vada 600 mg, Week 13, High Epoetin Alfa Stratum >90 to <300 U/kg/week
[10] = Vada 600 mg, Week 13, Low Epoetin Alfa Stratum ≤90 U/kg/week
[11] = Vada 750 mg, Week 11, High Epoetin Alfa Stratum >90 to <300 U/kg/week
[12] = Vada 750 mg, Week 11, Low Epoetin Alfa Stratum ≤90 U/kg/week
[13] = Vada 750 mg, Week 13, High Epoetin Alfa Stratum >90 to <300 U/kg/week
[14] = Vada 750 mg, Week 13, Low Epoetin Alfa Stratum ≤90 U/kg/week
[15] = Vada 900 mg, Week 11, High Epoetin Alfa Stratum >90 to <300 U/kg/week
[16] = Vada 900 mg, Week 11, Low Epoetin Alfa Stratum ≤90 U/kg/week

O=C(O)CNC(=O)c1ncc(-c2cccc(Cl)c2)cc1O [Compound 1, {[5-(3-chlorophenyl)-3-hydroxypyridine-2-carbonyl]amino}acetic acid]
Baseline-Unadjusted serum EPO AUC0-5, Geometric Mean [1]: 76.4 µg·h/mL
Baseline-Unadjusted serum EPO Cmax, Geometric Mean [1]: 25.5 µg/mL
Baseline-Unadjusted serum EPO Tmax, Median [1]: 4.50 h
Baseline-Unadjusted serum EPO AUC0-5, Geometric Mean [2]: 97.5 µg·h/mL
Baseline-Unadjusted serum EPO Cmax, Geometric Mean [2]: 24.9 µg/mL
Baseline-Unadjusted serum EPO Tmax, Median [2]: 0.88 h
Baseline-Unadjusted serum EPO AUC0-5, Geometric Mean [3]: 65.1 µg·h/mL
Baseline-Unadjusted serum EPO Cmax, Geometric Mean [3]: 17.7 µg/mL
Baseline-Unadjusted serum EPO Tmax, Median [3]: 2.08 h
Baseline-Unadjusted serum EPO AUC0-5, Geometric Mean [4]: 88.4 µg·h/mL
Baseline-Unadjusted serum EPO Cmax, Geometric Mean [4]: 28.8 µg/mL
Baseline-Unadjusted serum EPO Tmax, Median [4]: 3.94 h
Baseline-Unadjusted serum EPO AUC0-5, Geometric Mean [5]: 89.9 µg·h/mL
Baseline-Unadjusted serum EPO Cmax, Geometric Mean [5]: 27.2 µg/mL
Baseline-Unadjusted serum EPO Tmax, Median [5]: 2.47 h
Baseline-Unadjusted serum EPO AUC0-5, Geometric Mean [6]: 102.0 µg·h/mL
Baseline-Unadjusted serum EPO Cmax, Geometric Mean [6]: 33.2 µg/mL
Baseline-Unadjusted serum EPO Tmax, Median [6]: 0 h
Baseline-Unadjusted serum EPO AUC0-5, Geometric Mean [7]: 83.2 µg·h/mL
Baseline-Unadjusted serum EPO Cmax, Geometric Mean [7]: 23.4 µg/mL
Baseline-Unadjusted serum EPO Tmax, Median [7]: 0.92 h
Baseline-Unadjusted serum EPO AUC0-5, Geometric Mean [8]: 53.8 µg·h/mL
Baseline-Unadjusted serum EPO Cmax, Geometric Mean [8]: 18.5 µg/mL
Baseline-Unadjusted serum EPO Tmax, Median [8]: 4.50 h
Baseline-Unadjusted serum EPO AUC0-5, Geometric Mean [9]: 44.0 µg·h/mL
Baseline-Unadjusted serum EPO Cmax, Geometric Mean [9]: 49.9 µg/mL
Baseline-Unadjusted serum EPO Tmax, Median [9]: 4.63 h
Baseline-Unadjusted serum EPO AUC0-5, Geometric Mean [10]: 59.4 µg·h/mL
Baseline-Unadjusted serum EPO Cmax, Geometric Mean [10]: 20.7 µg/mL
Baseline-Unadjusted serum EPO Tmax, Median [10]: 7.08 h
Baseline-Unadjusted serum EPO AUC0-5, Geometric Mean [11]: 84.6 µg·h/mL
Baseline-Unadjusted serum EPO Cmax, Geometric Mean [11]: 21.9 µg/mL
Baseline-Unadjusted serum EPO Tmax, Median [11]: 4.06 h
Baseline-Unadjusted serum EPO AUC0-5, Geometric Mean [12]: 41.3 µg·h/mL
Baseline-Unadjusted serum EPO Cmax, Geometric Mean [12]: 12.5 µg/mL
Baseline-Unadjusted serum EPO Tmax, Median [12]: 4.50 h
Baseline-Unadjusted serum EPO AUC0-5, Geometric Mean [13]: 42.9 µg·h/mL
Baseline-Unadjusted serum EPO Cmax, Geometric Mean [13]: 14.1 µg/mL
Baseline-Unadjusted serum EPO Tmax, Median [13]: 0 h
Baseline-Unadjusted serum EPO AUC0-5, Geometric Mean [14]: 40.8 µg·h/mL
Baseline-Unadjusted serum EPO Cmax, Geometric Mean [14]: 13.2 µg/mL
Baseline-Unadjusted serum EPO Tmax, Median [14]: 4.50 h
Baseline-Unadjusted serum EPO AUC0-5, Geometric Mean [15]: 96.5 µg·h/mL
Baseline-Unadjusted serum EPO Cmax, Geometric Mean [15]: 30.2 µg/mL
Baseline-Unadjusted serum EPO Tmax, Median [15]: 0 h
Baseline-Unadjusted serum EPO AUC0-5, Geometric Mean [16]: 81.0 µg·h/mL
Baseline-Unadjusted serum EPO Cmax, Geometric Mean [16]: 24.4 µg/mL
Baseline-Unadjusted serum EPO Tmax, Median [16]: 0 h
